Measurements from PubChem BioAssay AID2060611 (Molecular Pharmacology Branch, DTP, NCI, 2025).

System: 628569-122-R-J1-PDC complex spheroid viability
Experiment: Anticancer human tumor 628569-122-R-J1-PDC patient-derived head and neck squamous carcinoma cell line growth inhibition [CLK]
Settings: for IC50: curve of first compound; for viability, T/C: stronger effect = lower value
Outline: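 Multi-cell-type spheroids combined patient-derived tumor cells with HUVEC endothelial cells and human mesenchymal stem cells. Paired agents were dosed in half-log steps down from about clinical Cmax, or from 10 microM where Cmax was unknown.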

[1] = second compound 0.0316 µM, first compound 0.0316 µM
[2] = second compound 0.0316 µM, first compound 0.1 µM
[3] = second compound 0.0316 µM, first compound 0.316 µM
[4] = second compound 0.0316 µM, first compound 1 µM
[5] = second compound 0.0316 µM, first compound 3.16 µM
[6] = second compound 0.0316 µM, first compound 10 µM
[7] = second compound 0.1 µM, first compound 0.0316 µM
[8] = second compound 0.1 µM, first compound 0.1 µM
[9] = second compound 0.1 µM, first compound 0.316 µM
[10] = second compound 0.1 µM, first compound 1 µM
[11] = second compound 0.1 µM, first compound 3.16 µM
[12] = second compound 0.1 µM, first compound 10 µM
[13] = second compound 0.316 µM, first compound 0.0316 µM
[14] = second compound 0.316 µM, first compound 0.1 µM
[15] = second compound 0.316 µM, first compound 0.316 µM
[16] = second compound 0.316 µM, first compound 1 µM
[17] = second compound 0.316 µM, first compound 3.16 µM
[18] = second compound 0.316 µM, first compound 10 µM
[19] = second compound 1 µM, first compound 0.0316 µM
[20] = second compound 1 µM, first compound 0.1 µM
[21] = second compound 1 µM, first compound 0.316 µM
[22] = second compound 1 µM, first compound 1 µM
[23] = second compound 1 µM, first compound 3.16 µM
[24] = second compound 1 µM, first compound 10 µM
[25] = second compound 3.16 µM, first compound 0.0316 µM
[26] = second compound 3.16 µM, first compound 0.1 µM
[27] = second compound 3.16 µM, first compound 0.316 µM
[28] = second compound 3.16 µM, first compound 1 µM
[29] = second compound 3.16 µM, first compound 3.16 µM
[30] = second compound 3.16 µM, first compound 10 µM
[31] = second compound 10 µM, first compound 0.0316 µM
[32] = second compound 10 µM, first compound 0.1 µM
[33] = second compound 10 µM, first compound 0.316 µM
[34] = second compound 10 µM, first compound 1 µM
[35] = second compound 10 µM, first compound 3.16 µM
[36] = second compound 10 µM, first compound 10 µM
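Further: spheroids exposed to agents for seven days before readout.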
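Wherever viability, T/C is given: 100% = DMSO vehicle control viability.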

In the case of `CC(C)CC(NC(=O)C(Cc1ccccc1)NC(=O)c1cnccn1)B(O)O` (stereo unspecified) + CN1CCN(c2cc(C(=O)Nc3cc4cc(-c5cnn(C)c5)ccc4cn3)ccn2)CC1, the IC50 (second compound 0.0316 µM) is reported as 4.41 nM, the IC50 (second compound 0.1 µM) is reported as 1.68 nM and the IC50 (second compound 0.316 µM) is reported as < 0.949 nM. The IC50 (second compound 1 µM) was < 0.949 nM, the IC50 (second compound 3.16 µM) was < 0.949 nM and the IC50 (second compound 10 µM) was < 0.949 nM. For the same molecule, the viability, T/C (second compound 0.0316 µM, first compound 0.000949 µM) was 83.3%, the viability, T/C (second compound 0.0316 µM, first compound 0.003 µM) was 70.2% and the viability, T/C (second compound 0.0316 µM, first compound 0.00949 µM) was 9.85%. It also gave a viability, T/C (second compound 0.0316 µM, first compound 0.03 µM) of 8.4%, a viability, T/C (second compound 0.0316 µM, first compound 0.0949 µM) of 6.4% and a viability, T/C (second compound 0.0316 µM, first compound 0.3 µM) of 4.25%. It also gave a viability, T/C (second compound 0.1 µM, first compound 0.000949 µM) of 62.6%, a viability, T/C (second compound 0.1 µM, first compound 0.003 µM) of 37.3% and a viability, T/C (second compound 0.1 µM, first compound 0.00949 µM) of 7.61%. For the same molecule, the viability, T/C (second compound 0.1 µM, first compound 0.03 µM) was 6.34%, the viability, T/C (second compound 0.1 µM, first compound 0.0949 µM) was 6.04% and the viability, T/C (second compound 0.1 µM, first compound 0.3 µM) was 5.02%. It also gave a viability, T/C (second compound 0.316 µM, first compound 0.000949 µM) of 37.8%, a viability, T/C (second compound 0.316 µM, first compound 0.003 µM) of 4.9% and a viability, T/C (second compound 0.316 µM, first compound 0.00949 µM) of 10.6%. The viability, T/C (second compound 0.316 µM, first compound 0.03 µM) was 4.39%, the viability, T/C (second compound 0.316 µM, first compound 0.0949 µM) was 4.89% and the viability, T/C (second compound 0.316 µM, first compound 0.3 µM) was 2.72%. For the same molecule, the viability, T/C (second compound 1 µM, first compound 0.000949 µM) was 9.15%, the viability, T/C (second compound 1 µM, first compound 0.003 µM) was 8.04% and the viability, T/C (second compound 1 µM, first compound 0.00949 µM) was 4.76%. It also gave a viability, T/C (second compound 1 µM, first compound 0.03 µM) of 6.26%, a viability, T/C (second compound 1 µM, first compound 0.0949 µM) of 7.32% and a viability, T/C (second compound 1 µM, first compound 0.3 µM) of 5.71%. The viability, T/C (second compound 3.16 µM, first compound 0.000949 µM) was 6.67%, the viability, T/C (second compound 3.16 µM, first compound 0.003 µM) was 6.69% and the viability, T/C (second compound 3.16 µM, first compound 0.00949 µM) was 5.84%. It also gave a viability, T/C (second compound 3.16 µM, first compound 0.03 µM) of 5.55%, a viability, T/C (second compound 3.16 µM, first compound 0.0949 µM) of 5.83% and a viability, T/C (second compound 3.16 µM, first compound 0.3 µM) of 4.09%. For the same molecule, the viability, T/C (second compound 10 µM, first compound 0.000949 µM) was 8.8%, the viability, T/C (second compound 10 µM, first compound 0.003 µM) was 1.66% and the viability, T/C (second compound 10 µM, first compound 0.00949 µM) was 2.36%. It also gave a viability, T/C (second compound 10 µM, first compound 0.03 µM) of 1.91%, a viability, T/C (second compound 10 µM, first compound 0.0949 µM) of 4.23% and a viability, T/C (second compound 10 µM, first compound 0.3 µM) of 0.93%.
In the case of `CC1(C)CCC(CN2CCN(c3ccc(C(=O)NS(=O)(=O)c4ccc(NCC5CCOCC5)c([N+](=O)[O-])c4)c(Oc4cnc5[nH]ccc5c4)c3)CC2)=C(c2ccc(Cl)cc2)C1` + CN1CCN(c2cc(C(=O)Nc3cc4cc(-c5cnn(C)c5)ccc4cn3)ccn2)CC1, the IC50 (second compound 0.0316 µM) is reported as > 10000 nM, the IC50 (second compound 0.1 µM) is reported as > 10000 nM and the IC50 (second compound 0.316 µM) is reported as < 31.6 nM. The IC50 (second compound 1 µM) was < 31.6 nM, the IC50 (second compound 3.16 µM) was < 31.6 nM and the IC50 (second compound 10 µM) was < 31.6 nM. It also gave a viability, T/C [1] of 94%, a viability, T/C [2] of 105% and a viability, T/C [3] of 103%. The viability, T/C [4] was 96%, the viability, T/C [5] was 97% and the viability, T/C [6] was 85.6%. It also gave a viability, T/C [7] of 70.8%, a viability, T/C [8] of 63.6% and a viability, T/C [9] of 78.5%. For the same molecule, the viability, T/C [10] was 67.7%, the viability, T/C [11] was 71.1% and the viability, T/C [12] was 69.5%. It also gave a viability, T/C [13] of 36.1%, a viability, T/C [14] of 29.7% and a viability, T/C [15] of 41.3%. For the same molecule, the viability, T/C [16] was 36%, the viability, T/C [17] was 28.4% and the viability, T/C [18] was 22.4%. The viability, T/C [19] was 10.8%, the viability, T/C [20] was 13.3% and the viability, T/C [21] was 5.93%. The viability, T/C [22] was 9.88%, the viability, T/C [23] was 10.1% and the viability, T/C [24] was 3.58%. It also gave a viability, T/C [25] of 8.81%, a viability, T/C [26] of 8.56% and a viability, T/C [27] of 6.4%. The viability, T/C [28] was 7.84%, the viability, T/C [29] was 8.73% and the viability, T/C [30] was 3.29%. For the same molecule, the viability, T/C [31] was 7.98%, the viability, T/C [32] was 2.99% and the viability, T/C [33] was 4.03%. The viability, T/C [34] was 8.3%, the viability, T/C [35] was 3.6% and the viability, T/C [36] was 0.85%.
For `CC1COCCN1c1cc(C2(S(C)(=N)=O)CC2)nc(-c2ccnc3[nH]ccc23)n1` (stereo unspecified) + CN1CCN(c2cc(C(=O)Nc3cc4cc(-c5cnn(C)c5)ccc4cn3)ccn2)CC1, the IC50 (second compound 0.0316 µM) was 2620 nM, the IC50 (second compound 0.1 µM) was 1420 nM and the IC50 (second compound 0.316 µM) was < 31.6 nM. The IC50 (second compound 1 µM) was < 31.6 nM, the IC50 (second compound 3.16 µM) was < 31.6 nM and the IC50 (second compound 10 µM) was < 31.6 nM. It also gave a viability, T/C [1] of 101%, a viability, T/C [2] of 95.9% and a viability, T/C [3] of 79.1%. For the same molecule, the viability, T/C [4] was 60.8%, the viability, T/C [5] was 45.9% and the viability, T/C [6] was 46.1%. It also gave a viability, T/C [7] of 68.2%, a viability, T/C [8] of 75.6% and a viability, T/C [9] of 59%. It also gave a viability, T/C [10] of 53.6%, a viability, T/C [11] of 45.4% and a viability, T/C [12] of 41.2%. It also gave a viability, T/C [13] of 34.3%, a viability, T/C [14] of 41.9% and a viability, T/C [15] of 36%. It also gave a viability, T/C [16] of 38.4%, a viability, T/C [17] of 27.2% and a viability, T/C [18] of 24.7%. The viability, T/C [19] was 9.71%, the viability, T/C [20] was 9.35% and the viability, T/C [21] was 7.68%. For the same molecule, the viability, T/C [22] was 7.29%, the viability, T/C [23] was 7.44% and the viability, T/C [24] was 10.3%. The viability, T/C [25] was 8.58%, the viability, T/C [26] was 5.23% and the viability, T/C [27] was 6.65%. The viability, T/C [28] was 9.55%, the viability, T/C [29] was 9.82% and the viability, T/C [30] was 9.3%. The viability, T/C [31] was 4.43%, the viability, T/C [32] was 4.71% and the viability, T/C [33] was 5.12%. For the same molecule, the viability, T/C [34] was 4.78%, the viability, T/C [35] was 4.88% and the viability, T/C [36] was 4.15%.
